# According to patent US8809358B2, “Use of IκB-kinase inhibitors in pain therapy” (Sanofi-Aventis Deutschland GmbH, priority 2002, dated 2014):
# Key:
# [1] = test system: Zymosan-induced paw inflammation; assay: Zymosan-induced paw inflammation in the mouse: spontaneous running performance in a running wheel; assay type: in vivo, C57/B6 mice; details: for Statistical difference as compared with the vehicle: running wheel AUC, seven days
# Procedure: 4th Model: • Zymosan-induced paw inflammation in the mouse; • Parameter: spontaneous running performance in a running wheel. In the cage in which it is kept, the experimental animal has access to a running wheel, the revolutions of which are recorded electronically. During the night hours, the C57/B6 mice use the running wheel voluntarily and, after a one-week phase of acclimatization, cover on average 4 100 meters/night. After zymosan has been injected, the distance run each night is reduced. This reduction in running performance is a valid parameter for a restriction in function which is due to inflammation pain. Experimental implementation: After an acclimatization phase of one week, the distance run/24 hours was measured in order to determine the base line. 25 μl of a suspension containing 50 mg of zymosan/ml were then injected into the right hind paw of the experimental animal during short-term anesthesia using isoflurane. The distance run/24 hours was then determined during the following seven days. In the analysis, the area under the curve for the values for the distance run was determined (AUC, tab. 7): the lower the AUC, the lower was the running performance during the week following injection of the zymosan. […] The substance was administered for the first time on day 1 after injection of the zymosan.
# [2] = test system: Kaolin/carrageenan-induced knee joint inflammation; assay: Kaolin/carrageenan-induced knee joint inflammation in the rat: reaction of spinal neurons during pressure stimulation of the knee; assay type: in vivo
# Source text: (§1) • Zymosan-induced paw inflammation in the rat; • Parameter: paw withdrawal time or paw withdrawal threshold during thermal or mechanical stimulation of the hind paw. 2nd Model: • Kaolin/carrageenan-induced knee joint inflammation in the rat; • Parameter: reaction of spinal neurons during pressure stimulation of the knee. Model 1
# Experimental implementation: In rats which were under sodium thiopental anesthesia, the spinal canal was opened and spinal medullary neurons which processed the “pain impulses” from the knee-joint were identified. Following identification, a long-term recording, in which the activity of the nerve cell was recorded before and during the development of an acute inflammation in the knee-joint, was carried out. For this, the responses to non-noxious and noxious stimulation at the knee-joint were measured in a control period before inducing the inflammation and for several hours after inducing the inflammation.
# The acute inflammation was induced by the intraarticular injection of a suspension (about 150 μl) of kaolin and carrageenan. In controlled experiments, only the vehicle was applied to the spinal medullary surface in order to represent the development of the hyperexcitability under control conditions. As a rule, this development of hyperexcitability took place within 2 to 4 hours and was expressed in a marked increase in the responses to non-noxious and noxious stimulation of the knee-joint (Tab. 3). […] The responses of the cell to non-noxious and noxious stimulation were then subsequently monitored as in the control experiments.
# [3] = test system: Zymosan-induced paw inflammation; assay: Zymosan-induced paw inflammation in the rat: paw withdrawal threshold during mechanical stimulation (von Frey test); assay type: in vivo; details: for Change in the paw withdrawal threshold (%): 30 mg/kg i.p. 15 min before, 2.5 and 5.5 h after Zymosan
# Procedure: as §1
# Experimental implementation: in short-term anesthesia using isoflurane, 1 mg of Zymosan (as a suspension in 100 μl of PBS (phosphate-buffered salt solution)) was injected subcutaneously into the middle of the plantar side of one of the experimental animal's hind paws. After that, two different behavioral tests were used to quantitatively determine the development of a hyperalgesia.
# b) Determining the Paw Withdrawal Threshold During Mechanical Stimulation (von Frey Test)
# The experimental animal was placed in a transparent plastic chamber whose floor consisted of wire-gauze. Punctuate pressure of defined strength was produced using calibrated nylon fibers, what are termed von Frey hairs. The weakest pressure stimulation during which the animal withdrew its paw determines the mechanical pain threshold.
# About half an hour before, and at various times after, the Zymosan injection, the thermal and mechanical pain thresholds were determined on the right hind paw and on the left hind paw (see Tables 1, 2). The decrease in the ipsilateral pain threshold, expressed in % of the contralateral pain threshold, was then calculated (see Tables 1, 2). The degree of hyperalgesia is directly proportional to the magnitude of this decrease.
# In a control group, the Zymosan injection induced pronounced mechanical and thermal hyperalgesia (see control data in Tabs. 1 and 2).
# [4] = test system: Zymosan-induced paw inflammation; assay: Zymosan-induced paw inflammation in the mouse: paw withdrawal time during thermal stimulation of the hind paw; assay type: in vivo; details: for Statistical difference as compared with the vehicle: thermal hyperalgesia AUC
# Procedure: • Zymosan-induced paw inflammation in the mouse; • Parameter: paw withdrawal time during thermal stimulation of the hind paw. Experimental implementation: In short-term anesthesia using isoflurane, 25 μl of a suspension containing 50 mg of zymosan/ml were injected into the right hind paw of the experimental animal. The development of a hyperalgesia was then determined quantitatively as follows: Determining the Paw Withdrawal Time During Thermal Stimulation (Hargreave's Test; See Above). The experimental animal was placed in a transparent plastic chamber having a glass floor. As soon as the experimental animal was no longer moving, following the reconnaissance phase (about 5 min), an infrared light source was positioned directly below the hind paw to be stimulated and switched on. The lamp emitted focused infrared light of increasing intensity such that the skin temperature of the hind paw increased almost linearly. As soon as the animal withdrew the paw, the lamp switched itself off. The temperature of the paw at the time it is withdrawn has just become unpleasant for the animal; this is referred to as the thermal pain threshold. Shortly before the zymosan injection, and for from 7 to 14 days after the injection, the thermal pain threshold was determined once daily on the right hind paw and left hind paw. Subsequently, the integral of the area which was formed from the curves for the paw withdrawal times of the inflamed paw and the noninflamed paw (AUC, area between the curves, see tables 5 and 6) was determined as a measure of the hyperalgesia. The larger this value is, the more pronounced is the hyperalgesia, and the smaller the value is in animals which are being given the substance, the greater is the success of the therapy. […] A very high dose of paracetamol was likewise administered twice daily to another group of animals which was taken through the experiment in parallel. […] The scheme for zymosan injection and dosing was identical to that in the previously described study. The only difference was that this additional study ran for 14 days.
smiles,measurement,setting,value
"CNc1nccc(-c2cc3cc(C(=O)N[C@@H](CN(c4ccccc4)c4ccccc4)c4n[nH]c(=O)o4)ccc3[nH]2)n1 [Compound 13, N—[(S)-2-diphenylamino-1-(5-oxo-4,5-dihydro[1,3,4]oxadiazol-2-yl)ethyl]-2-(2-methylaminopyrimidin-4-yl)-1H-indole-5-carboxamide]",distance run as compared with the vehicle group,"[1]; mouse, 7 days, both the higher doses",dose-dependent increase
same,Statistical difference as compared with the vehicle,[1]; 2.8 mg/kg twice daily,no
same,Statistical difference as compared with the vehicle,[1]; 25 mg/kg twice daily,yes
same,Statistical difference as compared with the vehicle,[1]; 75 mg/kg twice daily,yes
same,"Neuronal responses before and during knee-joint inflammation (imp/15 s), mean value","[2]; Non-noxious stimulation at the knee-joint, about 30 μl of 10 μM solution on spinal medulla, Baseline",0.92 imp/15 s
same,"Neuronal responses before and during knee-joint inflammation (imp/15 s), mean value","[2]; Noxious stimulation at the knee-joint, about 30 μl of 10 μM solution on spinal medulla, 120-180 min after K/C injection",8.5 imp/15 s
same,"Neuronal responses before and during knee-joint inflammation (imp/15 s), mean value","[2]; Noxious stimulation at the knee-joint, about 30 μl of 10 μM solution on spinal medulla, Baseline",0.8 imp/15 s
same,development of spinal hyperexcitability compared with the controls,"[2]; rat, about 30 μl of 10 μM solution on spinal medulla",almost completely suppressed
same,effect on the responses to noxious knee-joint stimulation compared with indomethacin,"[2]; rat, comparison with published data from an earlier study",more strongly expressed
same,onset of the effect on mechanical hyperalgesia after Zymosan injection,[3]; 30 mg/kg i.p.,1 h
same,Change in the paw withdrawal threshold (%),[3]; 2 h after Zymosan injection,−36.0%
same,Change in the paw withdrawal threshold (%),[3]; 24 h after Zymosan injection,−9.7%
same,Change in the paw withdrawal threshold (%),[3]; Baseline −0.5 h,0.0%
same,mechanical hyperalgesia,[3]; 30 mg/kg i.p. three times,significantly reduced
same,persistence of the effect on mechanical hyperalgesia after the last administration,[3]; 30 mg/kg i.p. three times,≥ 18 h
same,activity in the test model,[3]; mechanical hyperalgesia,very strong
same,activity in the test model,"[4]; mouse, 7-day study",very strong activity
same,reduction of thermal hyperalgesia compared with paracetamol,"[4]; mouse, 7-day study",to a greater extent
same,"AUC (thermal hyperalgesia), dose dependence","[4]; mouse, 7-day study, orally twice daily",decreased in a dose-dependent manner
same,"thermal hyperalgesia, dose dependence","[4]; mouse, 14-day study",reduce thermal hyperalgesia in a dose-dependent manner
same,"effect on thermal hyperalgesia at the high dosage, compound 13 versus Celecoxib","[4]; mouse, 14-day study, high dosage",equally strong effects
same,Statistical difference as compared with the vehicle,"[4]; 14 days, 25 mg/kg",yes
same,Statistical difference as compared with the vehicle,"[4]; seven days, 2.8 mg/kg orally twice daily",no
same,Statistical difference as compared with the vehicle,"[4]; seven days, 25 mg/kg orally twice daily",yes
same,Statistical difference as compared with the vehicle,"[4]; seven days, 75 mg/kg orally twice daily",yes
